This is an account of results in US6093729A, “Substituted bicyclic heteroaroylguanidines, a process for their preparation, their use as a medicament or a diagnostic agent, and a medicament containing them” (priority 1994, dated 2000).

The test system of one series is rat hearts. As to conditions: isolated rat hearts, cited from earlier work.
In series [1] the target is T1, Na^+ /H^+ exchanger of rabbit erythrocytes (Oryctolagus cuniculus, UniProt P23791).
T1 construct: determine the Na^+ influx into the erythrocytes; endogenous in cells; host or cells: erythrocytes of cholesterol-fed New Zealand White rabbits (Ivanovas)
Put plainly: Inhibition of the Na^+ /H^+ exchanger of rabbit erythrocytes (amiloride-sensitive sodium influx, flame photometry). It counts as cell-based, rabbit (New Zealand White). As to conditions: pH 7.4, 37° C. The text has this: Inhibition of the Na^+ /H^+ exchanger of rabbit erythrocytes:
New Zealand White rabbits (Ivanovas) were given a standard diet containing 2% cholesterol for six weeks in order to activate Na^+ /H^+ exchange and thus to be able to use flame photometry to determine the Na^+ influx into the erythrocytes via […]. The blood was removed from the aural arteries and rendered incoagulable by the addition of 25 IU of potassium heparin. One part of each sample was used for the duplicate determination of the hematocrit by centrifugation. Aliquots of in each case 100 μl were employed for measuring the initial content of Na^+ in the erythrocytes.
In order to determine the amiloride-sensitive sodium influx, 100 μl of each blood sample were in each case incubated, at pH 7.4 and 37° C., in 5 ml of a hyperosmolar salt/sucrose medium ([…]: 140 NaCl, 3 KCl, 150 sucrose, 0.1 ouabain, 20 tris(hydroxymethyl)aminomethane). The erythrocytes were then washed three times with ice cold MgCl2 /ouabain solution ([…]: 112 MgCl2, 0.1 ouabain) and hemolyzed in 2.0 ml of distilled water. The intracellular content of sodium was determined by flame photometry.
The nett influx of Na^+ was calculated from the difference between the initial sodium values and the sodium content of the erythrocytes following incubation. The amilorideinhibitable sodium influx was given by the difference in the sodium content of the erythrocytes following incubation with and without 3×10-4 mol/l amiloride. The same procedure was also used in the case of the compounds according to the invention.

For series [2] the following is noted: cited from earlier work.

Counter-ions that a name gives are not always drawn.

T1 sequence (P23791 whole entry): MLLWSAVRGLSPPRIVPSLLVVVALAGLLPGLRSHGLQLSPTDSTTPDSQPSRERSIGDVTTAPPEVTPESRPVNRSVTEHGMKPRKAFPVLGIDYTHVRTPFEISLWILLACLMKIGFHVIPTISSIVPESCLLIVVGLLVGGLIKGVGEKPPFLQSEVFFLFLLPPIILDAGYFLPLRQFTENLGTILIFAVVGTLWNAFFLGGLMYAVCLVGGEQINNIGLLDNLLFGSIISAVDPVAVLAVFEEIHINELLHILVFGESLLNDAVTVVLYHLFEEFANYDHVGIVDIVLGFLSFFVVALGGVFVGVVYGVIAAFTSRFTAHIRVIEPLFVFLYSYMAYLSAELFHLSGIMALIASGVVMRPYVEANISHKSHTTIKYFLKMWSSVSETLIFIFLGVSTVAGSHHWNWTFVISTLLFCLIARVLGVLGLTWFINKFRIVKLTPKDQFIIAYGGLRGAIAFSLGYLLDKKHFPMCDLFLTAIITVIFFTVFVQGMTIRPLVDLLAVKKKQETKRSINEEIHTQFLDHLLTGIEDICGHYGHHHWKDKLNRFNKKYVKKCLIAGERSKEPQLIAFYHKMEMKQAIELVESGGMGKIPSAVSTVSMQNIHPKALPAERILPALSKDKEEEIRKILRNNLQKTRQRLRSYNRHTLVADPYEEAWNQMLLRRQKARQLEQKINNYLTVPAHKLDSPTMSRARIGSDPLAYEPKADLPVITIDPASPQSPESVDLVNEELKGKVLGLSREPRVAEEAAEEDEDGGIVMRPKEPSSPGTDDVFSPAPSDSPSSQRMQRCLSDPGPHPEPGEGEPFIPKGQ

Consider `CCN(c1nc(N)c(C(=O)N=C(N)N)nc1Cl)C(C)C` [ethylisopropyl amiloride, Ethylisopropylamiloride], for which, in the series with rat hearts (compared with amiloride), the “potency relative to amiloride against artificially induced ventricular fibrillation” value was “even more potent than amiloride”. For orientation: IC50 means the concentration that gives 50% inhibition. In turn, `Cc1nc2ccc(Cl)cc2cc1C(=O)N=C(N)N` [Example 8, 6-Chloro-2-methylquinoline-3-carboguanidide hydrochloride] displayed an IC50 in series [1] of less than 1 µM. Regarding `NC(N)=NC(=O)c1ccc2cnccc2c1` [Example 4, Isoquinoline-6-carboguanidide], half-maximal inhibition in series [1] (IC50) was put at 10 µM. Consider `NC(N)=NC(=O)c1nc(Cl)c(N)nc1N` [amiloride], for which the antiarrhythmic effect entry in series [2] (Circulation 79, 1257-63 (1989)) is given as “only weakly expressed”. For the same compound, in series [2] (side effects), the “accompanying effects undesirable when treating cardiac arrhythmias” value is “hypotensive and saluretic effects”. The “suppression of artificially induced ventricular fibrillation” value in the series on rat hearts (Eur. Heart J. 9 (suppl. 1): 167 (1988)) was “completely suppress artificially induced ventricular fibrillation”. The compound `NC(N)=NC(=O)c1cnc2ccccc2c1` [Example 2, Quinoline-3-carboguanidide Dihydrochloride] registered an IC50 in series [1] of 1.2 µM.

For the compound `NC(N)=NC(=O)c1ccc2ncccc2c1` [Example 3, Quinolin-6-carboguanidide], in series [1], the IC50 was 3 to 5 µM. For `NC(N)=NC(=O)c1ccc2ccccc2n1` [Example 1, Quinoline-2-carboguanidide Dihydrochloride], the IC50 in series [1] lay in the range of 2 to 3 µM.
